Results reported in PMC10154249, “Unique progerin C-terminal peptide ameliorates Hutchinson–Gilford progeria syndrome phenotype by rescuing BUBR1” (Nature Aging, 2023).
“And” between values parts separate entries of the source, which are not always exact repeats. Equal values may be shown once.

How the values were obtained:
[1] = test system: SAC signal response (p-H3); assay: Western blot of p-H3 (SAC signal response), nocodazole-treated HGADFN003 cells; type: cell-based, human; details: nocodazole 200 ng ml^–1 with UPCP
Procedure: Western blot was performed as previously described. Cells were lysed in 1× Laemmli sample buffer after washing twice in cold PBS without calcium and magnesium. Protein concentrations were determined using the bicinchoninic acid (BCA) protein assay. Protein lysates were subjected to SDS–PAGE, transferred to 0.45-μm pore size hydrophobic PVDF transfer membrane (Merck Millipore), detected with the appropriate primary antibodies coupled with horseradish peroxidase-conjugated corresponding secondary antibodies, and visualized using enhanced chemiluminescence ECL reagent (GE Healthcare). The Tanon 5500 high-definition low-illumination CCD system (Tanon FLI Capture v.1.02) was used to capture chemiluminescent signals.

Lmna^G609G/G609G mice [2] = assay: Survival (Kaplan–Meier) of Lmna^G609G/G609G mice; type: in vivo, mouse
Source text: All animal experiments were approved by the Ethics Committee of School of Life Sciences, Northeast Normal University, China (AP20191011) and carried out in accordance with the relevant guidelines: National Standards of the People’s Republic of China (GB/T 35892–2018), Laboratory Animal—Guideline for Ethical Review of Animal Welfare. We generated a mouse model (ICR background), carrying the Lmna^G609G using the BE4-Gam system. The protocols for the BE4-Gam system and microinjection of pronuclear-stage embryos have been described in detail previously[37],[38],[59]. Briefly, a mixture of BE4-Gam mRNA (200 ng μl^–1) and sgRNA-Lmna (30 ng μl^–1) was coinjected into the cytoplasm of pronuclear-stage embryos of the mouse. The injected embryos were transferred to embryo culture medium for 30–60 min, followed by transferring the injected embryos into the recipient mother. The embryos continued to develop and the founder mice (referred to as F0) were born: wild-type mice (Lmna^+/+), heterozygous mice (Lmna^G609G/+) and homozygous mice (Lmna^G609G/G609G). F1 heterozygous mice (Lmna^G609G/+) were obtained by crossing F0 heterozygous mice (Lmna^G609G/+). F2 homozygous mice (Lmna^G609G/G609G) were obtained by crossing F1 heterozygous mice (Lmna^G609G/+). We selected F2 mice (Lmna^+/+ and Lmna^G609G/G609G) for subsequent experiments. The mice were housed with a 12-h light/dark cycle (6:00 to 18:00) in a 20 °C and 40% humidity-controlled room. Water and rodent feed were fed ad libitum.
(§1) For UPCP injection, 14-day-old Lmna^G609G/G609G mice were injected intraperitoneally with either PBS or UPCP (20 mg kg^–1, every other day) and wild-type mice were injected with PBS. All phenotypic analyses were performed after 12 weeks of treatment with UPCP. Bodyweight and lifespan were monitored after UPCP treatment. The survival rate was analyzed by the Kaplan–Meier method. We only included mice that were of sufficient bodyweight at the start of the experiment, typically at least 80% of the average littermate weight of the same sex and genotype. All animals meeting criteria for inclusion were then divided randomly into three groups according to genotype (Lmna^+/+, Lmna^G609G/G609G-Mock and Lmna^G609G/G609G-UPCP).

Lmna^G609G/G609G mice [3] = assay: Open field test; type: in vivo, mouse; details: for Distance: LmnaG609G/G609G-UPCP, one line per mouse
Procedure: as §1
The mice were acclimated to the testing room for 2 h before the test. Before each individual trial, the testing apparatus was cleaned with 75% ethanol. Mice were placed individually in a random corner of the box (40 × 40 × 35 cm) facing the wall. Their movements, indicating locomotor activity, were recorded with a video camera for 20 min and were analyzed with Ethovision XT 10 (Noldus).

IMR90-progerin cells = assay: γH2AX foci in IMR90-progerin cells; type: cell-based, human; details: for γH2AX foci per cell, n>10 / γH2AX foci per cell, n≤10: IMR90-Flag-progerin+UPCP
Procedure: Immunofluorescence was performed as described previously. Cells were plated on cover slips in 12-well plates, left overnight before the treatment. Cells were fixed in 1% formaldehyde in culture medium for 10 min at 37 °C and permeabilized with 0.2% Triton X-100 in PBS for 10 min at room temperature. Cells were washed twice in PBS and blocked for 1 h with 5% BSA in PBS and then incubated with primary antibodies at 4 °C overnight, washed three times in PBS and incubated with secondary antibodies for 1 h at room temperature. Cell nuclei were counterstained with a 500 nM concentration of 4,6-diamidino-2-phenylindole (DAPI) (Sigma). Images were acquired by a fluorescence microscope (OLYMPUS FV-1000, Carl Zeiss LSM880 or Leica DMi8) and analyzed with software NIS-Elements AR v.5.0.1 (Nikon), FLUOVIEW v.4.2b (OLYMPUS), ZEN v.2.3 SP1 (Carl Zeiss) and Leica Application Suite X v.3.6.0.24 (Leica). Cells were quantified by investigators who were blinded to the identity of the analyzed cell.

HGADFN003 cells = assay: SA-β-gal staining of HGADFN003 cells; type: cell-based, human; details: for Relative percentage of SA-β-gal positive cells: Fig. 5a, Mock 32, 39, 31, P=0.0059; for SA-β-gal positive cells: HGADFN003, Extended Data Fig. 10c
Procedure: SA-β-gal staining was performed as previously described. Cells were fixed in 0.5% glutaraldehyde for 15 min at room temperature, washed three times with PBS (pH 6.0) containing 1 mM MgCl2 and exposed overnight 37 °C to containing 1 mg ml^–1 5-bromo-4-chloro-3-indolyl-β-D-galactopyranoside (MCE, catalog no. HY-15934), 0.12 mM potassium ferrocyanide (Sigma, catalog no. P3289), 0.12 mM potassium ferricyanide (Sigma, catalog no. P8131) and 1 mM MgCl2 PBS buffer (pH 6.0). Cells were washed three times with H2O and observed under a microscope (OLYMPUS CKX53). SA-β-gal positive cells were quantified by investigators who were blinded to the identity of the analyzed cell.

H-YGRKKRRQRRRYNLRSRTVLCGTCGQPADKASASGSGAQSPQNCSIM-OH (cysteines drawn unpaired) [UPCP, unique progerin C-terminal peptide]
SAC signal response (p-H3) [1]: repaired the SAC signal response | mean survival (Lmna^G609G/G609G mice [2]; 20 mg kg^–1 i.p. every other day from 14 days of age, PBS 100.9 days): 118.6 days | median survival (Lmna^G609G/G609G mice [2]; 20 mg kg^–1 i.p. every other day from 14 days of age, n = 15 UPCP vs n = 17 PBS (100 days)): 117 days | individual survival (Lmna^G609G/G609G mice [2]; 20 mg kg^–1 i.p. every other day, female, individual 1 of 9): 103 days | individual survival (Lmna^G609G/G609G mice [2]; 20 mg kg^–1 i.p. every other day, female, individual 2 of 9): 110 days | individual survival (Lmna^G609G/G609G mice [2]; 20 mg kg^–1 i.p. every other day, female, individual 3 of 9): 110 days | individual survival (Lmna^G609G/G609G mice [2]; 20 mg kg^–1 i.p. every other day, female, individual 4 of 9): 111 days | individual survival (Lmna^G609G/G609G mice [2]; 20 mg kg^–1 i.p. every other day, female, individual 5 of 9): 117 days | individual survival (Lmna^G609G/G609G mice [2]; 20 mg kg^–1 i.p. every other day, female, individual 6 of 9): 126 days | individual survival (Lmna^G609G/G609G mice [2]; 20 mg kg^–1 i.p. every other day, female, individual 7 of 9): 128 days | individual survival (Lmna^G609G/G609G mice [2]; 20 mg kg^–1 i.p. every other day, female, individual 8 of 9): 130 days | individual survival (Lmna^G609G/G609G mice [2]; 20 mg kg^–1 i.p. every other day, female, individual 9 of 9): 136 days | individual survival (Lmna^G609G/G609G mice [2]; 20 mg kg^–1 i.p. every other day, male, individual 1 of 6): 104 days | individual survival (Lmna^G609G/G609G mice [2]; 20 mg kg^–1 i.p. every other day, male, individual 2 of 6): 106 days | individual survival (Lmna^G609G/G609G mice [2]; 20 mg kg^–1 i.p. every other day, male, individual 3 of 6): 116 days | individual survival (Lmna^G609G/G609G mice [2]; 20 mg kg^–1 i.p. every other day, male, individual 4 of 6): 118 days | individual survival (Lmna^G609G/G609G mice [2]; 20 mg kg^–1 i.p. every other day, male, individual 5 of 6): 129 days | individual survival (Lmna^G609G/G609G mice [2]; 20 mg kg^–1 i.p. every other day, male, individual 6 of 6): 135 days | increase in lifespan (median survival) (Lmna^G609G/G609G mice [2]; 20 mg kg^–1 i.p. every other day, vs PBS-treated mice): 17% | mobility (Lmna^G609G/G609G mice [3]; 20 mg kg^–1 i.p. every other day, open field, 20 min): enhanced the mobility | Distance (Lmna^G609G/G609G mice [3]; female mice, Fig. 6g): 3465.62 cm and 4842.39 cm and 4480.91 cm and 4399.08 cm and 3236.68 cm and 4440.93 cm | Distance (Lmna^G609G/G609G mice [3]; male mice, Fig. 6h): 5127.23 cm and 4324.53 cm and 5298.93 cm and 5261.99 cm and 4436.52 cm and 3525.05 cm | γH2AX foci per cell, n>10 (IMR90-progerin cells; replicate 1): 75% | γH2AX foci per cell, n≤10 (IMR90-progerin cells; replicate 1): 25% | γH2AX foci per cell, n>10 (IMR90-progerin cells; replicate 2): 69% | γH2AX foci per cell, n≤10 (IMR90-progerin cells; replicate 2): 31% | γH2AX foci per cell, n>10 (IMR90-progerin cells; replicate 3): 61% | γH2AX foci per cell, n≤10 (IMR90-progerin cells; replicate 3): 39% | γH2AX-53BP1 foci (IMR90-progerin cells; IMR90-progerin cells): lower level of γH2AX-53BP1 foci | Relative percentage of SA-β-gal positive cells (HGADFN003 cells; HGADFN003, replicate 1): 15% | Relative percentage of SA-β-gal positive cells (HGADFN003 cells; HGADFN003, replicate 2): 10% | Relative percentage of SA-β-gal positive cells (HGADFN003 cells; HGADFN003, replicate 3): 19% | SA-β-gal activity (FTI-277/UPCP comparison, words) (HGADFN003 cells; HGADFN003): decreased the activity of SA-β-gal | SA-β-gal positive cells (HGADFN003 cells; replicate 1): 12% | SA-β-gal positive cells (HGADFN003 cells; replicate 2): 18% | SA-β-gal positive cells (HGADFN003 cells; replicate 3): 25% | SA-β-gal activity (HGADFN003 cells; HGPS cells): reduced activity of SA-β-gal | efficacy on HGPS cellular senescence relative to FTI-277 (HGADFN003 cells; HGPS cells): comparable with farnesyltransferase inhibitors (FTI-277)
